In the assay the test system is BDF1 mice, P388 leukemia ip, median survival T/C. Description: NCI In Vivo Anticancer Drug Screen. Data for tumor model P388 Leukemia (intraperitoneal) in B6D2F1 (BDF1) mice. To be noted: endpoint: median survival time, higher = longer survival. The method in brief: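 Transplantable tumour in mice; compound vs vehicle dosing; survival scored; ratio of treated to control reported.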

Setting [1] is: dose: 50.0 mg/kg/injection, schedule: Q01DX009 (ip), vehicle: saline with Tween-80.
The mark [2] stands for this setting: dose: 100.0 mg/kg/injection, schedule: Q04DX003 (ip), vehicle: saline with Tween-80.
The mark [3] stands for this setting: dose: 100.0 mg/kg/injection, schedule: Q01DX009 (ip), vehicle: saline with Tween-80.
Setting [4] is: dose: 200.0 mg/kg/injection, schedule: Q01DX009 (ip), vehicle: saline with Tween-80.
The mark [5] stands for this setting: dose: 200.0 mg/kg/injection, schedule: Q04DX003 (ip), vehicle: Klucel (hydroxypropylcellulose) (HPC).
[6] abbreviates: dose: 400.0 mg/kg/injection, schedule: Q04DX003 (ip), vehicle: Klucel (hydroxypropylcellulose) (HPC).
The mark [7] stands for this setting: dose: 100.0 mg/kg/injection, schedule: Q01DX009 (ip), vehicle: saline.
Setting [8] is: dose: 200.0 mg/kg/injection, schedule: Q01DX009 (ip), vehicle: saline.

The structures appear in SMILES notation. Values joined by “and” are separate entries in the source; they are usually repeats but may differ in a detail not shown here. Equal entries are not always repeated. Toxic doses and inconclusive results are not listed.

As to `C[C@H]1CN1C1=CC(=O)C(N2C[C@@H]2C)=CC1=O`, the T/C by setting is: (dose: 0.03 mg/kg/injection, schedule: Q01DX009 (ip), vehicle: saline) 109 % of control; (dose: 0.12 mg/kg/injection, schedule: Q01DX009 (ip), vehicle: saline) 118 % of control; (dose: 0.5 mg/kg/injection, schedule: Q01DX009 (ip), vehicle: Klucel (hydroxypropylcellulose) (HPC)) 160 % of control; (dose: 0.5 mg/kg/injection, schedule: Q01DX009 (ip), vehicle: saline) 191 % of control; (dose: 1.0 mg/kg/injection, schedule: Q01DX009 (ip), vehicle: Klucel (hydroxypropylcellulose) (HPC)) 160 % of control; (dose: 1.0 mg/kg/injection, schedule: Q01DX009 (ip), vehicle: saline) 220 % of control. Also, the T/C is 200 % of control (dose: 2.0 mg/kg/injection, schedule: Q01DX009 (ip), vehicle: Klucel (hydroxypropylcellulose) (HPC)) and 190 % of control (dose: 4.0 mg/kg/injection, schedule: Q01DX009 (ip), vehicle: Klucel (hydroxypropylcellulose) (HPC)).
With `CN(N=O)C(=O)NCCSSCCNC(=O)N(C)N=O`, the T/C (dose: 53.0 mg/kg/injection, schedule: Q04DX003 (ip), vehicle: saline with Tween-80) was 120 % of control; the T/C (dose: 80.0 mg/kg/injection, schedule: Q04DX003 (ip), vehicle: saline with Tween-80) is 170 % of control; the T/C (dose: 120.0 mg/kg/injection, schedule: Q04DX003 (ip), vehicle: saline with Tween-80) is 100 % of control.
In the case of `COc1cc2cc(c1Cl)N(C)C(=O)CC(OC(=O)C(C)C)C1(C)OC1C(C)C1CC(O)(NC(=O)O1)C(OC)/C=C/C=C(/C)C2OC(C)=O` (stereo unspecified), the T/C (dose: 1.6 micrograms/kg/injection, schedule: Q01DX009 (ip), vehicle: saline + alcohol) was 162 % of control; the T/C (dose: 3.1 micrograms/kg/injection, schedule: Q01DX009 (ip), vehicle: saline + alcohol) was 150 % of control; the T/C (dose: 6.2 micrograms/kg/injection, schedule: Q01DX009 (ip), vehicle: saline + alcohol) was 166 % of control; the T/C (dose: 12.5 micrograms/kg/injection, schedule: Q01DX009 (ip), vehicle: saline + alcohol) is 179 % of control; the T/C (dose: 25.0 micrograms/kg/injection, schedule: Q01DX009 (ip), vehicle: saline + alcohol) is 170 % of control.
As to `CSc1nc2n(Cc3c[nH]c(=O)[nH]c3=O)cc(C)cc-2c(=O)n1`, the T/C runs as follows: (dose: 6.25 mg/kg/injection, schedule: Q01DX009 (ip), vehicle: saline with Tween-80) 101 % of control; (dose: 12.5 mg/kg/injection, schedule: Q01DX009 (ip), vehicle: saline with Tween-80) 102 % of control; (dose: 25.0 mg/kg/injection, schedule: Q01DX009 (ip), vehicle: saline with Tween-80) 95 % of control; under setting [1], 93 % of control; (dose: 100.0 mg/kg/injection, schedule: Q01DX001 (ip), vehicle: saline with Tween-80) 113 % of control; (dose: 200.0 mg/kg/injection, schedule: Q01DX001 (ip), vehicle: saline with Tween-80) 106 % of control.
For the compound `CC(=O)NS(=O)(=O)c1ccc(NC(=O)/C=C/C(=O)O)cc1`, the T/C reads like this: under setting [2], 104 % of control; (dose: 200.0 mg/kg/injection, schedule: Q04DX003 (ip), vehicle: saline with Tween-80) 118 % of control; (dose: 400.0 mg/kg/injection, schedule: Q04DX003 (ip), vehicle: saline with Tween-80) 104 % of control.
`Nc1ncncc1-c1cccc2ccccc12`: the T/C runs as follows: under setting [1], 108 % of control; under setting [3], 99 % of control; under setting [4], 108 % of control.
Turning to `c1ccc(NNC(c2ccccc2)(c2ccccc2)c2ccccc2)cc1`, the T/C runs as follows: (dose: 100.0 mg/kg/injection, schedule: Q01DX009 (ip), vehicle: Klucel (hydroxypropylcellulose) (HPC)) 90 % of control; (dose: 100.0 mg/kg/injection, schedule: Q04DX003 (ip), vehicle: Klucel (hydroxypropylcellulose) (HPC)) 104 % of control; (dose: 200.0 mg/kg/injection, schedule: Q01DX009 (ip), vehicle: Klucel (hydroxypropylcellulose) (HPC)) 100 % of control; under setting [5], 91 % of control; (dose: 400.0 mg/kg/injection, schedule: Q01DX009 (ip), vehicle: Klucel (hydroxypropylcellulose) (HPC)) 90 % of control; under setting [6], 95 % of control.
In the case of `COc1ccc(-c2cnc(C(N)=O)c(=O)[nH]2)cc1`, the T/C was 104 % of control under setting [3]; 108 % of control under setting [4]; 100 % of control (dose: 400.0 mg/kg/injection, schedule: Q01DX009 (ip), vehicle: saline with Tween-80).
As for `Nc1ncnc2[nH]ncc12`, the T/C was 90 % of control (dose: 1.5 mg/kg/injection, schedule: Q01DX010 (ip), vehicle: saline); 104 % of control and 115 % of control (dose: 3.0 mg/kg/injection, schedule: Q01DX010 (ip), vehicle: saline); 100 % of control (dose: 6.0 mg/kg/injection, schedule: Q01DX010 (ip), vehicle: saline); 109 % of control and 110 % of control (dose: 12.0 mg/kg/injection, schedule: Q01DX010 (ip), vehicle: saline).
`Nc1c(Br)cc2c(c1Br)Cc1cc(Cl)ccc1-2`: the T/C by setting is: (dose: 6.0 mg/kg/injection, schedule: Q04DX003 (ip), vehicle: Klucel (hydroxypropylcellulose) (HPC)) 100 % of control; (dose: 12.0 mg/kg/injection, schedule: Q04DX003 (ip), vehicle: Klucel (hydroxypropylcellulose) (HPC)) 100 % of control; (dose: 25.0 mg/kg/injection, schedule: Q01DX009 (ip), vehicle: Klucel (hydroxypropylcellulose) (HPC)) 100 % of control; (dose: 25.0 mg/kg/injection, schedule: Q04DX003 (ip), vehicle: Klucel (hydroxypropylcellulose) (HPC)) 100 % of control; (dose: 50.0 mg/kg/injection, schedule: Q01DX009 (ip), vehicle: Klucel (hydroxypropylcellulose) (HPC)) 87 % of control and 90 % of control and 100 % of control; (dose: 50.0 mg/kg/injection, schedule: Q04DX003 (ip), vehicle: Klucel (hydroxypropylcellulose) (HPC)) 90 % of control. Moreover, the T/C is, setting by setting: under setting [5], 118 % of control; under setting [6], 95 % of control and 104 % of control.
Turning to `Clc1ccc(N=Cc2cccs2)cc1`, the T/C is, setting by setting: under setting [1], 96 % of control; under setting [3], 102 % of control; under setting [4], 88 % of control.
Take `Cc1cc2c(C(C)C)c(O)c(O)c(C=O)c2c(O)c1-c1c(C)cc2c(C(C)C)c(O)c(O)c(C=O)c2c1O`: the T/C (dose: 1.25 mg/kg/injection, schedule: Q01DX009 (ip), vehicle: saline with Tween-80) is 124 % of control and the T/C (dose: 2.5 mg/kg/injection, schedule: Q01DX009 (ip), vehicle: saline with Tween-80) was 120 % of control.
As for `O=C1c2ccccc2C(=O)N1CN1CCN(c2ccc(F)cc2)CC1`, the T/C is, setting by setting: (dose: 50.0 mg/kg/injection, schedule: Q01DX005 (ip), vehicle: saline with Tween-80) 103 % of control; (dose: 100.0 mg/kg/injection, schedule: Q01DX005 (ip), vehicle: saline with Tween-80) 94 % of control; (dose: 200.0 mg/kg/injection, schedule: Q01DX005 (ip), vehicle: saline with Tween-80) 103 % of control.
Turning to `O=C([O][Hg][CH2]C1COC([CH2][Hg][O]C(=O)c2ccccc2)CO1)c1ccccc1` (stereo unspecified), the T/C under setting [2] was 113 % of control.
For the compound `c1cnc2[nH]cnc2n1`, the T/C was 95 % of control under setting [7]; 100 % of control (dose: 100.0 mg/kg/injection, schedule: Q04DX003 (ip), vehicle: saline); 95 % of control under setting [8]; 100 % of control (dose: 200.0 mg/kg/injection, schedule: Q04DX003 (ip), vehicle: saline); 90 % of control (dose: 400.0 mg/kg/injection, schedule: Q04DX003 (ip), vehicle: saline).
Regarding `O=C1CCCCCC2CC12` (stereo unspecified) (tested in a mixture with another compound), the T/C is, setting by setting: (dose: 100.0 mg/kg/injection, schedule: Q01DX001 (ip), vehicle: other) 98 % of control; (dose: 200.0 mg/kg/injection, schedule: Q01DX001 (ip), vehicle: other) 103 % of control; (dose: 400.0 mg/kg/injection, schedule: Q01DX001 (ip), vehicle: other) 108 % of control.
Turning to `O/N=C/C=N/O.O/N=C/C=N/O.[Cl][Rh][Cl]`, the T/C is 99 % of control (dose: 25.0 mg/kg/injection, schedule: Q01DX009 (ip), vehicle: saline); 94 % of control (dose: 50.0 mg/kg/injection, schedule: Q01DX009 (ip), vehicle: saline); 108 % of control under setting [7]; 100 % of control under setting [8]; 91 % of control (dose: 400.0 mg/kg/injection, schedule: Q01DX009 (ip), vehicle: saline).

For the origin of these results see PubChem BioAssay AID328 (DTP/NCI, 2004).
